This is an account of results in patent US9006450B2 (Boehringer Ingelheim International GmbH, priority 2010, dated 2015).

For the experiment, the target named is T1, human ACC2 (Homo sapiens, UniProt O00763).
T1 construct: made in house; host or cells: insect cells (baculoviral expression system)
T1 sequence (O00763 129-2458 limits assumed): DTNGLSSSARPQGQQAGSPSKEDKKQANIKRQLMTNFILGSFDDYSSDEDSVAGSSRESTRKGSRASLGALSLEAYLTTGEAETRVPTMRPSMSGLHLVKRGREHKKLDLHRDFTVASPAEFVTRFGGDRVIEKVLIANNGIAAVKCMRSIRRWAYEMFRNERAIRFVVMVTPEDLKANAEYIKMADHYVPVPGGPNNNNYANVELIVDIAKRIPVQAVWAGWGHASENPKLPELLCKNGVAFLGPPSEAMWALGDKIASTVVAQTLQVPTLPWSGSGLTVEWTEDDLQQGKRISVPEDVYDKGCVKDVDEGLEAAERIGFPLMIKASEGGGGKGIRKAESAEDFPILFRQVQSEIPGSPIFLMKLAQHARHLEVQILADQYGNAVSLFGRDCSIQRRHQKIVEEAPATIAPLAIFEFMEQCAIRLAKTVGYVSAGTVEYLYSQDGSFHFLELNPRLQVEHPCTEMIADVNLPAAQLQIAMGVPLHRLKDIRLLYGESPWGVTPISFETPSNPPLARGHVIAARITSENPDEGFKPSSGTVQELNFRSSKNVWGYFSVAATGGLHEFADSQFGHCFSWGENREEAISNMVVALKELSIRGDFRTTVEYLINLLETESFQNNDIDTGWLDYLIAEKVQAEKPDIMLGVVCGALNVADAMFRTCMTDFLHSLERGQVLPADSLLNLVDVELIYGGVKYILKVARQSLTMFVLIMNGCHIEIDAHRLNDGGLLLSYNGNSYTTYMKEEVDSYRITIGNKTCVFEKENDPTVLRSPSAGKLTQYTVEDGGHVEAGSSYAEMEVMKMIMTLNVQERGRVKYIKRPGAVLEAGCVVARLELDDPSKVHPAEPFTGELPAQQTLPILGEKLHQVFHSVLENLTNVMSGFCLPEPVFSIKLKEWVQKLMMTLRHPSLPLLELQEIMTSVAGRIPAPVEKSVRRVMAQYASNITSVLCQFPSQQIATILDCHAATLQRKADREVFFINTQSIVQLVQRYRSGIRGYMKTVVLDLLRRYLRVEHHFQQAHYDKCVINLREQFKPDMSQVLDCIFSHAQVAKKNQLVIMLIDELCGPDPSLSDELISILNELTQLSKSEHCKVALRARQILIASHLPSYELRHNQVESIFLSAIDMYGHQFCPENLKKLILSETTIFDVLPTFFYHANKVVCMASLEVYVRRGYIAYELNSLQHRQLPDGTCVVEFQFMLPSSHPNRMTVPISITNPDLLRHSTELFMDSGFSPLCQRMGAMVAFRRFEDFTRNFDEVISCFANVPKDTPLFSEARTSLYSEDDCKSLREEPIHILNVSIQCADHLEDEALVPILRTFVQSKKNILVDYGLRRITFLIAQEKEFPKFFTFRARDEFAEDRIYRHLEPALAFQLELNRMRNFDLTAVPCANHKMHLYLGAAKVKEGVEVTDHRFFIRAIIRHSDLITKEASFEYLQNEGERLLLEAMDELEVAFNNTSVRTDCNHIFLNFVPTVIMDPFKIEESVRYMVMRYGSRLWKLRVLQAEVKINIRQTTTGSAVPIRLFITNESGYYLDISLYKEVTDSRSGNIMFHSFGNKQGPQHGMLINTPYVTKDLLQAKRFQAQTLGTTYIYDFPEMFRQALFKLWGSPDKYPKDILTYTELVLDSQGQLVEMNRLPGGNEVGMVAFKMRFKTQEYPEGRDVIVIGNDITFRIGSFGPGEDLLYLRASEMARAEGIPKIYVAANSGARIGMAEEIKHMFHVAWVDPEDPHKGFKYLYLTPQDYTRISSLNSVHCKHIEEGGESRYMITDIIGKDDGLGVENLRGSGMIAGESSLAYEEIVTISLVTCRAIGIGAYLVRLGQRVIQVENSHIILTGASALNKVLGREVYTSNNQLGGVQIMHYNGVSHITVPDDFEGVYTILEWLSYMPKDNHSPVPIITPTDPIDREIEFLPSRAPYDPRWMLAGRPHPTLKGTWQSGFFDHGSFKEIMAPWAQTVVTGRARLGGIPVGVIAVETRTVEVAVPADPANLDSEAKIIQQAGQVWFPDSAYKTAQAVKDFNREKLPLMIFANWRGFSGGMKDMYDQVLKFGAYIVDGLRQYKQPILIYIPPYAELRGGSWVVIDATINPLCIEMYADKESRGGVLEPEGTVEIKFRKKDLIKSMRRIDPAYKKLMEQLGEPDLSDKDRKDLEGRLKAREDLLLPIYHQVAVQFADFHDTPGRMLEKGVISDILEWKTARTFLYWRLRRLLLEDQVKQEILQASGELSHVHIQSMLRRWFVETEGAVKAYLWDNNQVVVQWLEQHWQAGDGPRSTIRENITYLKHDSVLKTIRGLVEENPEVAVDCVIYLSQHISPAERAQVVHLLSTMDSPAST
The experiment is described as follows: ACC2 assay, spectrophotometric 384 well assay (NADH-linked, coupled lactate dehydrogenase/pyruvate kinase). Format: biochemical. Conditions: ACC2 assay, hACC2 construct lacking 128 N-terminal amino acids, 25° C., 340 nm; read-out: IC50. The procedure, abridged:
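Human ACC2 lacking N-terminal 128 aa, baculovirus/insect-cell expressed, anion-exchange purified; 100 mM Tris pH 7.5, 10 mM citrate, 25 mM KHCO3, 1% DMSO. Started with 200 μM NADH and acetyl-CoA plus 500 μM ATP; PK/LDH-coupled A340 decrease read 15 min at 25° C. IC50 by nonlinear fit of low-control-subtracted slopes.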
The IC50 is the concentration that inhibits the measured activity by half. In the case of `CC(=O)N[C@@H](C)c1ccc(C2CCN(c3ncc(-c4ccccc4)cn3)CC2)cc1` [Example 10.43], the IC50 was determined as 30 nM.
Turning to `CC(=O)N[C@@H](C)c1ccc(C2CCN(c3ncc(-c4ccc(C)cc4)cn3)CC2)cc1` [Example 10.44], the concentration for half-maximal inhibition (IC50) amounted to 100 nM.
Next, `CC(=O)N[C@@H](C)c1ccc(C2CCN(c3ncc(-c4ccc(C(F)(F)F)cc4)cn3)CC2)cc1` [Example 10.45]: 1100 nM.
Next, `CC(=O)N[C@@H](C)c1ccc(C2CCN(c3ncc(-c4ccc5[nH]ccc5c4)cn3)CC2)cc1` [Example 10.46]: 140 nM; `CC(=O)N[C@@H](C)c1ccc(C2CCN(c3ncc(-c4ccc(C)c(C)c4)cn3)CC2)cc1` [Example 10.47]: 270 nM.
For the compound `CC(=O)N[C@@H](C)c1ccc(C2CCN(c3ncc(-c4ccc(C)cc4C)cn3)CC2)cc1` [Example 10.48], the IC50 stood at 1200 nM.
As for `CC(=O)N[C@@H](C)c1ccc(C2CCN(c3ncc(-c4ccc(F)c(C)c4)cn3)CC2)cc1` [Example 10.49], the IC50 stood at 260 nM.
With `CC(=O)N[C@@H](C)c1ccc(C2CCN(c3ncc(-c4ccc(F)c(C#N)c4)cn3)CC2)cc1` [Example 10.50] the figure was 50 nM.
As to `CC(=O)N[C@@H](C)c1ccc(C2CCN(c3ncc(-c4ccc(OCC5CC5)nc4)cn3)CC2)cc1` [Example 10.51], the IC50 was found to be 1500 nM.
With `CC(=O)N[C@@H](C)c1ccc(C2CCN(c3ncc(-c4ccc(F)c(F)c4)cn3)CC2)cc1` [Example 10.52] the figure was 70 nM; with `CC(=O)N[C@@H](C)c1ccc(C2CCN(c3ncc(-c4ccc(F)cc4F)cn3)CC2)cc1` [Example 10.53], 80 nM; with `CC(=O)N[C@@H](C)c1ccc(C2CCN(c3ncc(-c4cc(C)ccc4C)cn3)CC2)cc1` [Example 10.54], 420 nM.
Take `CC(=O)N[C@@H](C)c1ccc(C2CCN(c3ncc(-c4ccccc4C#N)cn3)CC2)cc1` [Example 10.55]: the IC50 amounted to 640 nM.
For the compound `CC(=O)N[C@@H](C)c1ccc(C2CCN(c3ncc(-c4cscc4C)cn3)CC2)cc1` [Example 10.56], the IC50 is 320 nM.
Next, `COc1ccc(-c2cnc(N3CCC(c4ccc([C@H](C)NC(C)=O)cc4)CC3)nc2)cc1Cl` [Example 10.57]: 240 nM; `COc1ncccc1-c1cnc(N2CCC(c3ccc([C@H](C)NC(C)=O)cc3)CC2)nc1` [Example 10.58]: 760 nM; `CC(=O)N[C@@H](C)c1ccc(C2CCN(c3ncc(-c4ccc(F)cc4C)cn3)CC2)cc1` [Example 10.60]: 390 nM.
Next, `CC(=O)N[C@@H](C)c1ccc(C2CCN(c3ncc(-c4ccc(C#N)cc4C)cn3)CC2)cc1` [Example 10.61]: 530 nM; `CC(=O)N[C@@H](C)c1ccc(C2CCN(c3ncc(-c4ccsc4)cn3)CC2)cc1` [Example 10.62]: 50 nM; `CC(=O)N[C@@H](C)c1ccc(C2CCN(c3ncc(-c4ccc(C#N)s4)cn3)CC2)cc1` [Example 10.63]: 30 nM.
With `CCSc1ccc(-c2cnc(N3CCC(c4ccc([C@H](C)NC(C)=O)cc4)CC3)nc2)cc1` [Example 10.64], the IC50 was 7000 nM.
With `COc1cc(-c2cnc(N3CCC(c4ccc([C@H](C)NC(C)=O)cc4)CC3)nc2)ccc1C` [Example 10.65] the figure was 330 nM; with `CC(=O)N[C@@H](C)c1ccc(C2CCN(c3ncc(-c4ccc(C)cc4Cl)cn3)CC2)cc1` [Example 10.66], 160 nM; with `CC(=O)N[C@@H](C)c1ccc(C2CCN(c3ncc(-c4ccc(C)c(Cl)c4)cn3)CC2)cc1` [Example 10.67], 90 nM.
With `COc1cncc(-c2cnc(N3CCC(c4ccc([C@H](C)NC(C)=O)cc4)CC3)nc2)c1` [Example 10.68] the figure was 320 nM; with `CC(=O)N[C@@H](C)c1ccc(C2CCN(c3ncc(-c4cncc(F)c4)cn3)CC2)cc1` [Example 10.69], 270 nM.
With `CC(=O)N[C@@H](C)c1ccc(C2CCN(c3ncc(-c4ccc5ncccc5c4)cn3)CC2)cc1` [Example 10.70] the figure was 230 nM.
As for `CC(=O)N[C@@H](C)c1ccc(C2CCN(c3ncc(C4=CCCCC4)cn3)CC2)cc1` [Example 10.71], the IC50 stood at 150 nM.
Next, `CC(=O)N[C@@H](C)c1ccc(C2CCN(c3ncc(-c4cccn4C)cn3)CC2)cc1` [Example 10.72]: 1200 nM.
With `CC(=O)N[C@@H](C)c1ccc(C2CCN(c3ncc(-c4ccc5nccnc5c4)cn3)CC2)cc1` [Example 10.73] the figure was 180 nM; with `CC(=O)N[C@@H](C)c1ccc(C2CCN(c3ncc(-c4cnc(Br)n4C)cn3)CC2)cc1` [Example 10.74], 1200 nM; with `CC(=O)N[C@@H](C)c1ccc(C2CCN(c3ncc(-c4ccc5sccc5c4)cn3)CC2)cc1` [Example 10.75], 50 nM.
For `CC(=O)N[C@@H](C)c1ccc(C2CCN(c3ncc(-c4ccc(Cl)c(C)c4)cn3)CC2)cc1` [Example 10.76], the IC50 is 110 nM.
Next, `CSc1ccc(-c2cnc(N3CCC(c4ccc([C@H](C)NC(C)=O)cc4)CC3)nc2)c(C(F)(F)F)c1` [Example 10.77]: 1600 nM.
With `CC(=O)N[C@@H](C)c1ccc(C2CCN(c3ncc(-c4ccc(O)c(Cl)c4)cn3)CC2)cc1` [Example 10.78] the figure was 200 nM; with `CC(=O)N[C@@H](C)c1ccc(C2CCN(c3ncc(-c4cncc(C#N)c4)cn3)CC2)cc1` [Example 10.79], 1100 nM.
With `CC(=O)N[C@@H](C)c1ccc(C2CCN(c3ncc(-c4cccc(C#N)c4)cn3)CC2)cc1` [Example 10.80] the figure was 140 nM.
For the compound `CC(=O)N[C@@H](C)c1ccc(C2CCN(c3ncc(-c4ccc(N(C)C)nc4)cn3)CC2)cc1` [Example 10.81], the IC50 came out at 10400 nM.
Consider `CC(=O)N[C@@H](C)c1ccc(C2CCN(c3ncc(-c4ccc(C#N)nc4)cn3)CC2)cc1` [Example 10.82], for which the IC50 came out at 150 nM.
As for `CC(=O)N[C@@H](C)c1ccc(C2CCN(c3ncc(-c4cnc(C#N)nc4)cn3)CC2)cc1` [Example 10.83], the 50% inhibitory concentration (IC50) worked out at 1900 nM.
Regarding `CC(=O)N[C@@H](C)c1ccc(C2CCN(c3ncc(C4=CCOCC4)cn3)CC2)cc1` [Example 10.84], the IC50 amounted to 1300 nM.
In the case of `CC(=O)N[C@@H](C)c1ccc(C2CCN(c3ncc(-c4ccc(C(F)(F)F)nc4)cn3)CC2)cc1` [Example 10.85], the IC50 worked out at 2600 nM.
Regarding `CC(=O)N[C@@H](C)c1ccc(C2CCN(c3ncc(-c4ccc5[nH]ncc5c4)cn3)CC2)cc1` [Example 10.86], the IC50 was 5900 nM.
Take `CC(=O)N[C@@H](C)c1ccc(C2CCN(c3ncc(-c4ccc5c(c4)OCO5)cn3)CC2)cc1` [Example 10.87]: the IC50 was 70 nM.
Regarding `CC(=O)N[C@@H](C)c1ccc(C2CCN(c3ncc(-c4ccc5occc5c4)cn3)CC2)cc1` [Example 10.88], the 50% inhibitory concentration (IC50) was 30 nM.
`CC(=O)N[C@@H](C)c1ccc(C2CCN(c3ncc(-c4ccc5c(c4)CCCO5)cn3)CC2)cc1` [Example 10.90]: the half-maximal inhibitory concentration (IC50) was 350 nM.
With `CC(=O)N[C@@H](C)c1ccc(C2CCN(c3ncc(-c4coc5ccccc45)cn3)CC2)cc1` [Example 10.91] the figure was 170 nM; with `CC(=O)N[C@@H](C)c1ccc(C2CCN(c3ncc(-c4cccc5c4OCC5)cn3)CC2)cc1` [Example 10.92], 370 nM; with `CC(=O)N[C@@H](C)c1ccc(C2CCN(c3ncc(C4=CCC5(CC4)OCCO5)cn3)CC2)cc1` [Example 10.93], 4300 nM.
Next, `CC(=O)N[C@@H](C)c1ccc(C2CCN(c3ncc(-c4cccnc4C)cn3)CC2)cc1` [Example 10.94]: 2300 nM.
Next, `CC(=O)N[C@@H](C)c1ccc(C2CCN(c3ncc(-c4cnccc4C)cn3)CC2)cc1` [Example 10.95]: 2000 nM; `CC(=O)N[C@@H](C)c1ccc(C2CCN(c3ncc(-c4ccco4)cn3)CC2)cc1` [Example 10.96]: 600 nM; `CC(=O)N[C@@H](C)c1ccc(C2CCN(c3ncc(-c4ccccc4CC#N)cn3)CC2)cc1` [Example 10.97]: 8200 nM.
For `C[C@H](NC(=O)C1CC1)c1ccc(C2CCN(c3ncc(-c4ccc5c(c4)CCO5)cn3)CC2)cc1` [Example 10.98], the IC50 stood at 900 nM.
Take `C[C@H](NC(=O)N(C)C)c1ccc(C2CCN(c3ncc(-c4ccc5c(c4)CCO5)cn3)CC2)cc1` [Example 10.99]: the IC50 turned out to be 380 nM.
With `Cc1cccc(-c2cnc(N3CCC(c4ccc([C@H](C)NC(=O)C5CC5)cc4)CC3)nc2)c1` [Example 10.100] the figure was 90 nM; with `C[C@H](NC(=O)C1CC1)c1ccc(C2CCN(c3ncc(-c4ccc(F)cc4)cn3)CC2)cc1` [Example 10.101], 80 nM.
Take `C[C@H](NC(=O)C1CC1)c1ccc(C2CCN(c3ncc(-c4ccc(C#N)cc4)cn3)CC2)cc1` [Example 10.102]: the half-inhibitory concentration (IC50) was found to be 240 nM.
With `C[C@H](NC(=O)C1CC1)c1ccc(C2CCN(c3ncc(-c4ccccc4F)cn3)CC2)cc1` [Example 10.103] the figure was 560 nM; with `C[C@H](NC(=O)C1CC1)c1ccc(C2CCN(c3ncc(-c4ccoc4)cn3)CC2)cc1` [Example 10.104], 170 nM; with `C[C@H](NC(=O)C1CC1)c1ccc(C2CCN(c3ncc(-c4ccccc4)cn3)CC2)cc1` [Example 10.105], 100 nM.
Next, `Cc1cccc(-c2cnc(N3CCC(c4ccc([C@H](C)NC(=O)N(C)C)cc4)CC3)nc2)c1` [Example 10.107]: 110 nM; `C[C@H](NC(=O)N(C)C)c1ccc(C2CCN(c3ncc(-c4ccc(F)cc4)cn3)CC2)cc1` [Example 10.108]: 90 nM; `C[C@H](NC(=O)N(C)C)c1ccc(C2CCN(c3ncc(-c4ccc(C#N)cc4)cn3)CC2)cc1` [Example 10.109]: 90 nM.
Next, `C[C@H](NC(=O)N(C)C)c1ccc(C2CCN(c3ncc(-c4ccccc4F)cn3)CC2)cc1` [Example 10.110]: 430 nM.
